What was measured:
[1] = target: T1, Serine/threonine-protein kinase RIO1 (Homo sapiens) (UniProt Q9BRS2); experiment: Selectivity interaction (KinomeScan (DiscoverX)) EUB0000666a RIOK1; conditions: at 10 µM
T1 sequence (whole entry): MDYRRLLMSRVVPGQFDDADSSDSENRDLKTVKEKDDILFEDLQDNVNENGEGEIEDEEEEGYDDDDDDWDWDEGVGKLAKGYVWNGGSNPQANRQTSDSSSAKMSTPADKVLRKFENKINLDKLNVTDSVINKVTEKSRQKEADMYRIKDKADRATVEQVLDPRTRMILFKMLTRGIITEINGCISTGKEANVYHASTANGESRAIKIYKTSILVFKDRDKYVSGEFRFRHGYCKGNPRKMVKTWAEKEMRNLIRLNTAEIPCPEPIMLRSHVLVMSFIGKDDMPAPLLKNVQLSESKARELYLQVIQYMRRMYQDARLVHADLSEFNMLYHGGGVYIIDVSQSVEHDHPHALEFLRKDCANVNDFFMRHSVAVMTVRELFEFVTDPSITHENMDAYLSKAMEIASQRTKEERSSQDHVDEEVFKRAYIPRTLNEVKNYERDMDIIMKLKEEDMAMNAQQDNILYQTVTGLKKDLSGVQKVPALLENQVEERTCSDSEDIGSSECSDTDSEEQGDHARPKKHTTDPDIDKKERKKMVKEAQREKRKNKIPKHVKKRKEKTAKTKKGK

[2] = tested on: Tyrosine-protein kinase ABL1 (Homo sapiens), P00519 [Q252H]; experiment: Selectivity interaction (KinomeScan (DiscoverX)) EUB0001079a ABL1; conditions: at 1 µM
[3] = target: Mast/stem cell growth factor receptor Kit (Homo sapiens, UniProt P10721); experiment: Selectivity interaction (Kinase panel (33PanQinase(R) Activity Assay)) EUB0000877a KIT
[4] = target: Serine/threonine-protein kinase PAK 3 (Homo sapiens) (UniProt O75914); experiment: Selectivity interaction (Kinase panel (Invitrogen)) EUB0000639a PAK3; conditions: at 200 nM
[5] = target: LIM domain kinase 2 (Homo sapiens) (UniProt P53671); experiment: Selectivity interaction (Ambit KINOMEscan and KiNATiv profiling in Jurkat cells) EUB0000090b LIMK2; assay type: cell-based; conditions: at 1 µM
[6] = target: Death-associated protein kinase 3 (Homo sapiens) (UniProt O43293); experiment: Selectivity interaction (Ambit KINOMEscan and KiNATiv profiling in Jurkat cells) EUB0000090b DAPK3; assay type: cell-based; conditions: at 1 µM
[7] = target: Activin receptor type-2B (Homo sapiens) (UniProt Q13705); experiment: Selectivity interaction (KinomeScan (DiscoverX)) EUB0000618a ACVR2B; conditions: at 10 µM
[8] = target: T2, cGMP-dependent protein kinase 1 (Homo sapiens) (UniProt Q13976); conditions: at 10 µM
T2 sequence (whole entry): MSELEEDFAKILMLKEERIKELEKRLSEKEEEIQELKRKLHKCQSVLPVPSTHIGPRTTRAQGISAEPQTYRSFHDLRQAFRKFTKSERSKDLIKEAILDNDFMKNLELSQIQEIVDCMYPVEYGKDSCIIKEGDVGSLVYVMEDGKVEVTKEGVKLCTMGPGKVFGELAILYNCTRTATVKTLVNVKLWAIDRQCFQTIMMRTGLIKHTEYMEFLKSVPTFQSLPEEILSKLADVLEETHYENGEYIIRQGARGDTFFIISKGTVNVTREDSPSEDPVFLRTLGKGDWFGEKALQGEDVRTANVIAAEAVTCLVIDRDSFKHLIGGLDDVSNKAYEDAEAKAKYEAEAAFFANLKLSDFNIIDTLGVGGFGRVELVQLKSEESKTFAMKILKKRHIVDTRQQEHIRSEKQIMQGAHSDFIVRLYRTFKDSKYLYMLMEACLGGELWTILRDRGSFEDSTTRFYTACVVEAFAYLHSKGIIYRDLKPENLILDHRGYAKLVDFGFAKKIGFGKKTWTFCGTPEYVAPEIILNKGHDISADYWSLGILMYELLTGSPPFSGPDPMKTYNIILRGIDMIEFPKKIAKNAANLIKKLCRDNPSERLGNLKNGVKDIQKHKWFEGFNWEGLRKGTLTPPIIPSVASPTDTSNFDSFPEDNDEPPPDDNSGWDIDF

[9] = target: Hepatocyte growth factor-like protein (Homo sapiens) (UniProt P26927); conditions: at 10 µM

LIM domain kinase 2 (Homo sapiens), sequence (P53671 whole entry, looked up, the tested form may be a part): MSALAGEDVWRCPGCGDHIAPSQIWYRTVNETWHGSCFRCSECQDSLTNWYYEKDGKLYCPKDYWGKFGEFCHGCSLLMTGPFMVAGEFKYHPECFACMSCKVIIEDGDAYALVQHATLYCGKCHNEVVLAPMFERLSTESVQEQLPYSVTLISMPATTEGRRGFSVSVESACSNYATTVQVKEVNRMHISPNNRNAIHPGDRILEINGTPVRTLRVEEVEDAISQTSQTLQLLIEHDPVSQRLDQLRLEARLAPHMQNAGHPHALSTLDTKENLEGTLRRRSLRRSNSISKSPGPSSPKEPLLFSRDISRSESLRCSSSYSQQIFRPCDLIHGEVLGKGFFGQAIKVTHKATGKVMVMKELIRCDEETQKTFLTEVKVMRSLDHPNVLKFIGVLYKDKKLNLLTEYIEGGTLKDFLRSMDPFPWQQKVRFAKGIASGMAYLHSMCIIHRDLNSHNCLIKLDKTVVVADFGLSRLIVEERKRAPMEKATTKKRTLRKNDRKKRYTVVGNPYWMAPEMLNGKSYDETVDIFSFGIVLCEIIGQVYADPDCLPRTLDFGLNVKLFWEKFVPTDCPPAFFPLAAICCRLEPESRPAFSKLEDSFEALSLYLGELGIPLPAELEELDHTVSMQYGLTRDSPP
Mast/stem cell growth factor receptor Kit, sequence (P10721 whole entry): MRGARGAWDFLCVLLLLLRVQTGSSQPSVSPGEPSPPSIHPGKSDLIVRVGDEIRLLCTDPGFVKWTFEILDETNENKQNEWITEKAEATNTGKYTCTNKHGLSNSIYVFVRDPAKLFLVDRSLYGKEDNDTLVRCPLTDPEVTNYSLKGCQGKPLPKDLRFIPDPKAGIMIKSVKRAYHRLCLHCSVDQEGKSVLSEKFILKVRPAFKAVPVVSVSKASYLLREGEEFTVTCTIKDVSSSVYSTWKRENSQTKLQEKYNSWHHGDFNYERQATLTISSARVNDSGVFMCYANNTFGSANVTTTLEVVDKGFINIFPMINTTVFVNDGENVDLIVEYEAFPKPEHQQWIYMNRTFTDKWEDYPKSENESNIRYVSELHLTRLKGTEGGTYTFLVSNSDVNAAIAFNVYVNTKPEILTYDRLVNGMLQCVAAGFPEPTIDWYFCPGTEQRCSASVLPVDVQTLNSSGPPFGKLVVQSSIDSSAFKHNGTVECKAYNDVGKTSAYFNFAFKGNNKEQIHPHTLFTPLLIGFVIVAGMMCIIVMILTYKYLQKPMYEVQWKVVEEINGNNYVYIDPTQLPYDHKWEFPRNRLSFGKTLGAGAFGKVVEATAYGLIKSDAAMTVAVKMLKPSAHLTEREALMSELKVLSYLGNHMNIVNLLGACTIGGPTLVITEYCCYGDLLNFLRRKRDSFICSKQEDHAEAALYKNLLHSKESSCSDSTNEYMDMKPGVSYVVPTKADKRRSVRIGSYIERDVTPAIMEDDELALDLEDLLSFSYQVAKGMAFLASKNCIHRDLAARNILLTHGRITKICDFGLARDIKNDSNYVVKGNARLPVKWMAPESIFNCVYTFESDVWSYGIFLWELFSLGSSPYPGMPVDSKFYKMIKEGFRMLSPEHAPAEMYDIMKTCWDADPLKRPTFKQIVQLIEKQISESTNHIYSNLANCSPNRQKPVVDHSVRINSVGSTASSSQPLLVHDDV
Serine/threonine-protein kinase PAK 3 (Homo sapiens), sequence (O75914 whole entry, looked up, the tested form may be a part): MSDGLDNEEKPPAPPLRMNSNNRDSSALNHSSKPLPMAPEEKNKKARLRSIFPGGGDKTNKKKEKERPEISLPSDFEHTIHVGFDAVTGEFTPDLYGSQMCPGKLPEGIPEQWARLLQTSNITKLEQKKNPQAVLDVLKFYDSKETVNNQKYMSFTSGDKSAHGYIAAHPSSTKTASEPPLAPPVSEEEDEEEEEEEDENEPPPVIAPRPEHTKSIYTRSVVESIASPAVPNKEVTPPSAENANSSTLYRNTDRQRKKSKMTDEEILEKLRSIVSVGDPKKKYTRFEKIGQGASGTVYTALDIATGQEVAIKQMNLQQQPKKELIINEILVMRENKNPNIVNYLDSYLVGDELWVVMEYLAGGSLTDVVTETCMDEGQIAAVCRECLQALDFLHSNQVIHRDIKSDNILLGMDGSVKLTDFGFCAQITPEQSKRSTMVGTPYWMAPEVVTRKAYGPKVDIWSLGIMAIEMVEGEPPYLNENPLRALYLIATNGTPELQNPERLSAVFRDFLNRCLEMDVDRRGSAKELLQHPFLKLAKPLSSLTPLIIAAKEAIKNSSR
Activin receptor type-2B (Homo sapiens), sequence (Q13705 whole entry): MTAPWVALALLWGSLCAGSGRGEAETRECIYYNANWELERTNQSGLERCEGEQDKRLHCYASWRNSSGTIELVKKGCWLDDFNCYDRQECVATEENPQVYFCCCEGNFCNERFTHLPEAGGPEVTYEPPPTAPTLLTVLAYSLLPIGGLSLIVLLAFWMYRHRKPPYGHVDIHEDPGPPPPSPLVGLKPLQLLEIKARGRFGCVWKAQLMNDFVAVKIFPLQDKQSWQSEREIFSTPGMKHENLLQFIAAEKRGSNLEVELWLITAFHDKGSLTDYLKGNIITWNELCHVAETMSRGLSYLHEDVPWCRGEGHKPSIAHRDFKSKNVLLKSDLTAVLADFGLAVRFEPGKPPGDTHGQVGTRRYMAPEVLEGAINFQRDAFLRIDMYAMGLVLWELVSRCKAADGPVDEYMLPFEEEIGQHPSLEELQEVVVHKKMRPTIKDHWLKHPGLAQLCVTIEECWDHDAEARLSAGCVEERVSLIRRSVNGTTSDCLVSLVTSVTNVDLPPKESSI
Death-associated protein kinase 3 (Homo sapiens), sequence (O43293 whole entry, looked up): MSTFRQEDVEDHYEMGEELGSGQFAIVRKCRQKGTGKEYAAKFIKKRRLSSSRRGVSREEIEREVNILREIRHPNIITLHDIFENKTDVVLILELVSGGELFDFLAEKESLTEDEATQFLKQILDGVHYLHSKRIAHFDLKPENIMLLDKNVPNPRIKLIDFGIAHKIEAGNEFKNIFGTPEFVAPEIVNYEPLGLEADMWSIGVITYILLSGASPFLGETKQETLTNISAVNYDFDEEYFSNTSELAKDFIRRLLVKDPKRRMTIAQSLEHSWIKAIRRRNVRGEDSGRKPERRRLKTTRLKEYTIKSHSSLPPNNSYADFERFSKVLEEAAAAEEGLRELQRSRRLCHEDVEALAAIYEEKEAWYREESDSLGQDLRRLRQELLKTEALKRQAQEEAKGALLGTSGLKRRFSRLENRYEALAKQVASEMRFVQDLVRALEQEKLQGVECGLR

O=C(NOC[C@H](O)CO)c1ccc(F)c(F)c1Nc1ccc(I)cc1F
% of control [1]: 95%

Nc1cnc(N2CCc3cc(S(=O)(=O)Nc4c(F)cc(Cl)cc4F)cc(N4CCCC4=O)c32)nc1 [TP-020n]
% of control [2]: 98%

CCC(=O)N1CC[C@H](Nc2ncnc3c2CN(c2cnc(OC)c(C(F)(F)F)c2)CC3)C1 [LENIOLISIB]
IC50 [3]: > 10 µM

CC[C@@H]1[C@H](F)C(=O)N[C@@H]1COc1nccc2cc(C(N)=O)c(OC)cc12 [ZIMLOVISERTIB]
% of inhibition [4]: 0.439%

CN(C)C/C=C/C(=O)Nc1ccc(C(=O)N2CCCC(Nc3ncc(Cl)c(-c4c[nH]c5ccccc45)n3)C2)cc1 (centres undefined)
% of control [5]: 95%
% of control [6]: 100%

O[C@H]1CC[C@H](Nc2ncc3nc(Nc4c(F)cc(F)cc4F)n([C@H]4CCOC4)c3n2)CC1
% of control [7]: 100%

Cc1cc([C@@H](C)Nc2ccccc2C(=O)O)c2nc(N3CCOCC3)cc(=O)n2c1 [AZD-6482]
% of control [8]: 100%
% of control [9]: 95%

Source: ChEMBL document CHEMBL5465560, “Selectivity Literature for EUbOPEN Chemogenomic Library” (2024)
